Test results taken from ChEMBL document CHEMBL5120978, “Application of Compositions Comprising a KRAS G12C Inhibitor and an EGFR Inhibitor for the Potential Treatment of Cancer” (2022).

Experiments:
Assay type in all cases: functional
NCI-H2122 [1] = test: Anti-tumor activity against human NCI-H2122 cells xenografted with nude mouse assessed as inhibition of tumor growth inhibition at 50 mg/kg, po QD for 21 days relative to control; details: NCI-H2122, 504 h, time 21 day, read-out: TGI
NCI-H2122 [2] = test: Anti-tumor activity against human NCI-H2122 cells xenografted with nude mouse assessed as inhibition of tumor growth inhibition at 50 mg/kg, po QD for 21 days co-treated with 50 mg/kg, po QD Erlotinib relative to control; details: NCI-H2122, 504 h, time 21 day, read-out: TGI
[3] = Anti-tumor activity against human PDX CR6256 cells xenografted with nude BALB/c mouse assessed as inhibition of tumor growth inhibition at 30 mg/kg, po QD for 21 days co-treated with 20 mg/kg, ip QD Cetuximab relative to control; details: PDX CR6256, 504 h, time 21 day, read-out: TGI

Compound | inhibition in vivo at 50 mg/kg (NCI-H2122 [1]) | inhibition in vivo at 50 mg/kg (NCI-H2122 [2]) | inhibition in vivo at 30 mg/kg [3]
C=CC(=O)N1CCN(c2nc(OC[C@@H]3CCCN3C)nc3c(F)c(-c4nc(N)cc(C)c4C(F)(F)F)c(Cl)cc23)[C@@H](C)C1 [DIVARASIB] | 93% | 117% | 133%
C#Cc1cccc(Nc2ncnc3cc(OCCOC)c(OCCOC)cc23)c1 [ERLOTINIB] | 48% |  | 
